This is an account of results in patent publication US20020028836A1, “Potassium channel openers” (priority 2000, published 2002).

Usually EC50 stands for the concentration at which the effect is half-maximal. Low values mean a more potent agent, high ones a less potent agent. In general, Emax refers to the greatest response seen or fitted, relative to the assay's reference. The melting point is the temperature of the solid-liquid transition.

For series [1], the system named is primary cultured guinea-pig urinary bladder (GPB) cells. Description: Membrane hyperpolarization (MHP) assay, DiBAC(4)3 / FLIPR. Type of series: cell-based. The following applies: Cavia porcellus; for EC50: concentration that elicits 50% of the maximal response for the test sample; for Emax: maximal steady-state hyperpolarization, normalized to response with 10 μM P1075 (100%). The essentials: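 Primary smooth-muscle cells from male guinea-pig bladder, grown to confluence, loaded 30 min at 37° C with 5 μM DiBAC(4)3 in HEPES buffer pH 7.4. Fluorescence drop on FLIPR followed 25 min after compound; steady-state hyperpolarization normalized to 10 μM P1075 (100%), EC50 from four-parameter fit of five concentrations.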

Where only a bound is given, the exact number is not on record here.

On to `CC[C@H](C)[C@H](NC(=O)c1ccc(C)cc1)NC(=S)Nc1cccnc1` [Example 36, 4-methyl-N-((1R,2S)-2-methyl-1-{[(3-pyridinylamino)carbothioyl]amino}butyl)benzamide], for which the melting point lay in the range of 102 to 104 °C. In addition, in series [1], the EC50 worked out at 25500 nM and the maximum response (Emax) came out at 50%.

As to `CCC(CC)C(NC(=O)c1ccc(Cl)cc1)NC(=NC#N)Nc1cccnc1` (stereo not drawn) [Example 59, 4-chloro-N-(1-{[(cyanoimino)(3-pyridinylamino)methyl]amino}-2-ethylbutyl)benzamide], the melting point was in the range of 185 to 187 °C. For the same molecule, in series [1], the response was half-maximal at 310 nM (EC50) and the Emax stood at 73%.

On to `COc1cccc(NC(=S)NC(NC(=O)c2ccc(C)cc2)C(F)(F)F)c1` (stereo not drawn) [Example 12, 4-methyl-N-(2,2,2-trifluoro-1-{[(3-methoxyanilino)carbothioyl]amino}ethyl)benzamide], for which the melting point was 206 to 208 °C. Moreover, in series [1], the EC50 is ≥ 10000 nM and the Emax was determined as 4%.

For `O=C(Nc1cccnc1)NC(NC(=O)c1ccc(Cl)cc1)C(Cl)(Cl)Cl` (stereo not drawn) [Example 41, 4-chloro-N-(2,2,2-trichloro-1-{[(3-pyridinylamino)carbonyl]amino}ethyl)benzamide], the melting point lay in the range of 166 to 168 °C. In series [1], this molecule gave an EC50 of 140 nM and an Emax of 98%.

On to `N#CN=C(Nc1cccnc1)NC(NC(=O)c1ccc(Cl)cc1)C(F)(F)F` (stereo not drawn) [Example 64, 4-chloro-N-(1-{[(cyanoimino)(3-pyridinylamino)methyl]amino}-2,2,2-trifluoroethyl)benzamide], for which the melting point lay within 136 to 138 °C. In series [1], this molecule came in with an EC50 of 400 nM and an Emax of 89%.

In the case of `CC(C)(C)C(NC(=O)c1ccc(Cl)cc1)NC(=NC#N)Nc1cccc(F)c1` (stereo not drawn) [Example 70, 4-chloro-N-(1-{[(cyanoimino)(3-fluoroanilino)methyl]amino}-2,2-dimethylpropyl)benzamide], the melting point was 167 to 170 °C. Besides, in series [1], the EC50 worked out at 320 nM and the Emax was found to be 74%.

As for `Cc1ccc(C(=O)NC(CF)NC(=S)Nc2cccc([N+](=O)[O-])c2)cc1` (stereo not drawn) [Example 32, N-(2-fluoro-1-{[(3-nitroanilino)carbothioyl]amino}ethyl)-4-methylbenzamide], the melting point was 148 to 155 °C. In series [1], the 50% effective concentration (EC50) was 1000 nM and the Emax was 15%.

As to `CC1=C(CC(NC(=O)c2ccc(Cl)cc2)NC(=N[N+](=O)[O-])Nc2cccnc2)C(C)(C)CCC1` (stereo not drawn) [Example 129, 4-chloro-N-[1-{[(nitroimino)(3-pyridinylamino)methyl]amino}-2-(2,6,6-trimethyl-1-cyclohexen-1-yl)ethyl]benzamide], the melting point was in the range of 217 to 218 °C. In series [1], this molecule displayed an EC50 of 120 nM and an Emax of 132%.

The molecule `N#CN=C(Nc1cccnc1)NC(CC12CC3CC(CC(C3)C1)C2)NC(=O)c1ccc(Cl)cc1` (stereo not drawn) [Example 95, N-(2-(1-adamantyl)-1-{[(cyanoimino)(3-pyridinylamino)methyl]amino}ethyl)-4-chlorobenzamide] displayed a melting point of 202 to 203 °C. For the same molecule, in series [1], a half-maximal response (EC50) required 840 nM and the Emax was found to be 97%.

The molecule `Cc1ccccc1C(=O)NC(NC(=O)Nc1cccnc1)C(Cl)(Cl)Cl` (stereo not drawn) [Example 39, 2-methyl-N-(2,2,2-trichloro-1-{[(3-pyridinylamino)carbonyl]amino}ethyl)benzamide] gave a melting point of 182 to 184 °C. In series [1], this molecule had an EC50 of 460 nM and an Emax of 101%.

Turning to `COc1ccccc1NC(=S)NC(NC(=O)c1ccc(C)cc1)C(F)(F)F` (stereo not drawn) [Example 8, 4-methyl-N-(2,2,2-trifluoro-1-{[(2-methoxyanilino)carbothioyl]amino}ethyl)benzamide], the melting point lay in the range of 212 to 214 °C. Also, in series [1], the EC50 was ≥ 10000 nM and the Emax came out at 10%.

Regarding `C=CCOCC(CC)(COCC=C)C(NC(=O)c1ccc(Cl)cc1)NC(=N[N+](=O)[O-])Nc1cccnc1` (stereo not drawn) [Example 131, N-(2,2-bis[(allyloxy)methyl]-1-{[(nitroimino)(3-pyridinylamino)methyl]amino}butyl)-4-chlorobenzamide], the melting point is 175 to 180 °C. In series [1], the EC50 was 2000 nM and the Emax turned out to be 53%.

Turning to `CC(C)(Cc1ccccc1)C(NC(=O)c1ccc(Cl)cc1)NC(=NC#N)Nc1cccnc1` (stereo not drawn) [Example 102, 4-chloro-N-(1-{[(cyanoimino)(3-pyridinylamino)methyl]amino}-2,2-dimethyl-3-phenylpropyl)benzamide], the melting point lay within 182 to 183 °C. In series [1], the EC50 is > 10000 nM and the Emax is < 20%.

In the case of `CC(C)(C)CC(NC(=O)c1ccc(Cl)cc1)NC(=NC#N)Nc1cccnc1` (stereo not drawn) [Example 62, 4-chloro-N-(1-{[(cyanoimino)(3-pyridinylamino)methyl]amino}-3,3-dimethylbutyl)benzamide], the melting point lay within 181 to 183 °C. Also, in series [1], a half-maximal effect (EC50) was put at 330 nM and the Emax came to 81%.

Molecule `CCC(CC)(CCC#N)C(NC(=O)c1ccc(Cl)cc1)NC(=N[N+](=O)[O-])Nc1cccnc1` (stereo not drawn) [Example 132, 4-chloro-N-(4-cyano-1-{[(nitroimino)(3-pyridinylamino)methyl]amino}-2,2-diethylbutyl)benzamide] yielded a melting point of 100 to 110 °C. In series [1], this molecule showed a half-maximal effective concentration (EC50) of 130 nM and an Emax of 124%.

`CC(C)(C1CCCCC1)C(NC(=O)c1ccc(Cl)cc1)NC(=N[N+](=O)[O-])Nc1cccnc1` (stereo not drawn) [Example 130, 4-chloro-N-(1-{[(nitroimino)(3-pyridinylamino)methyl]amino}-2-cyclohexyl-2-methylpropyl)benzamide] showed a melting point of 201 to 203 °C. In series [1], the EC50 was found to be 530 nM and the Emax was 147%.

Turning to `Cc1ccc(C(=O)NC(NC(=S)Nc2cccc(C(F)(F)F)c2F)C(F)(F)F)cc1` (stereo not drawn) [Example 5, 4-methyl-N-[2,2,2-trifluoro-1-({[2-fluoro-3-(trifluoromethyl)anilino]carbothioyl}amino)ethyl]benzamide], the melting point was 179 to 181 °C. In series [1], this molecule returned an EC50 of 1080 nM and an Emax of 106%.

Regarding `Cc1ccc(C(=O)NC(NC(=S)Nc2cccc(C)c2)C(F)(F)F)cc1` (stereo not drawn) [Example 16, 4-methyl-N-{2,2,2-trifluoro-1-[(3-toluidinocarbothioyl)amino]ethyl}benzamide], the melting point lay in the range of 197 to 198 °C. In series [1], this molecule came in with an EC50 of 370 nM and a maximum response (Emax) of 65%.

The molecule `Cc1ccc(C(=O)NC(NC(=O)Nc2ccccc2)C(Cl)(Cl)Cl)cc1` (stereo not drawn) [Example 42, N-{1-[(anilinocarbonyl)amino]-2,2,2-trichloroethyl}-4-methylbenzamide] showed a melting point of 230 to 233 °C. In series [1], this molecule gave a concentration giving a half-maximal response (EC50) of 2140 nM and an Emax of 66%.

In the case of `N#CN=C(Nc1cccnc1)NC(NC(=O)c1ccc(Cl)cc1)C1CCCCC1` (stereo not drawn) [Example 61, 4-chloro-N-[{[(cyanoimino)(3-pyridinylamino)methyl]amino}(cyclohexyl)methyl]benzamide], the melting point was 190 to 192 °C. Moreover, in series [1], a half-maximal response (EC50) required 330 nM and the Emax turned out to be 36%.

`CC(C)(C1CCCCC1)C(NC(=O)c1ccc(Cl)cc1)NC(=NC#N)Nc1cccnc1` (stereo not drawn) [Example 93, 4-chloro-N-(1-{[(cyanoimino)(3-pyridinylamino)methyl]amino}-2-cyclohexyl-2-methylpropyl)benzamide] displayed a melting point of 181 to 183 °C. In addition, in series [1], it took 140 nM to reach a half-maximal effect (EC50) and the Emax was 75%.

For the molecule `CC(C)C(NC(=O)c1ccc(Cl)cc1)NC(=NC#N)Nc1cccnc1` (stereo not drawn) [Example 63, 4-chloro-N-(1-{[(cyanoimino)(3-pyridinylamino)methyl]amino}-2-methylpropyl)benzamide], the melting point is 182 to 184 °C. In series [1], this molecule showed an EC50 of 4400 nM and an Emax of 73%.

With `CC(C)CC(NC(=O)c1ccc(Cl)cc1)NC(=NC#N)Nc1cccnc1` (stereo not drawn) [Example 60, 4-chloro-N-(1-{[(cyanoimino)(3-pyridinylamino)methyl]amino}-3-methylbutyl)benzamide], the melting point was in the range of 193 to 194 °C. Further, in series [1], the EC50 was 1000 nM and the Emax is 62%.

In the case of `Cc1ccccc1C(=O)NC(NC(=S)Nc1cccnc1)C(C)(C)C` (stereo not drawn) [Example 26, N-(2,2-dimethyl-1-{[(3-pyridinylamino)carbothioyl]amino}propyl)-2-methylbenzamide], the melting point lay in the range of 186 to 187 °C. Also, in series [1], the midpoint of the response, the EC50, lay at 990 nM and the maximal response (Emax) worked out at 80%.

Molecule `N#CN=C(Nc1cccnc1)NC(NC(=O)c1ccc(Cl)cc1)C12CC3CC(CC(C3)C1)C2` (stereo not drawn) [Example 100, N-(1-adamantyl{[(cyanoimino)(3-pyridinylamino)methyl]amino}methyl)-4-chlorobenzamide] gave a melting point of 209 to 210 °C. In series [1], the EC50 is 180 nM and the maximum response (Emax) was 87%.

`Cc1ccc(C(=O)NC(NC(=NC#N)Nc2cncnc2)C(Cl)(Cl)Cl)cc1` (stereo not drawn) [Example 48, 4-methyl-N-(2,2,2-trichloro-1-{[(cyanoimino)(5-pyrimidinylamino)methyl]amino}ethyl)benzamide]: the melting point fell in the range of 186 to 188 °C. Further, in series [1], the EC50 stood at 200 nM and the Emax was 96%.

Regarding `CC(C)(C)C(NC(=O)c1ccc(Br)cc1)NC(=NC#N)Nc1cccnc1` (stereo not drawn) [Example 105, 4-bromo-N-(1-{[(cyanoimino)(3-pyridinylamino)methyl]amino}-2,2-dimethylpropyl)benzamide], the melting point was in the range of 180 to 181 °C. In series [1], this molecule gave a half-maximal effective concentration (EC50) of 53 nM and an Emax of 106%.
